Where “and” joins values, the source holds several entries; their conditions need not be identical. Equal entries are not always repeated. Toxic doses and inconclusive results are not listed. The calls were made as follows: active = survival T/C of 150% or more; inactive = T/C below 125% in these data. Square brackets hold non-standard residues; d marks the D form. Peptide text beside a SMILES is read from it. * marks the point of attachment. Nle = CCCC[CH](N)C(=O)O; Cbz = O=C(OCc1ccccc1)*
Tested on: BDF1 mice, B16 melanoma ip, median survival T/C
Experiment: NCI In Vivo Anticancer Drug Screen. Data for tumor model B16 Melanoma (intraperitoneal) in B6D2F1 (BDF1) mice
Conditions: endpoint: median survival time, higher = longer survival
In short: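 Read-out: survival or tumor size, given as treated/control ratio. Controls received vehicle only; animals bore transplantable tumors.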

[1] = dose: 100.0 mg/kg/injection, schedule: Q01DX009 (ip), vehicle: saline
[2] = dose: 100.0 mg/kg/injection, schedule: Q01DX009 (ip), vehicle: Klucel (hydroxypropylcellulose) (HPC)
[3] = dose: 200.0 mg/kg/injection, schedule: Q01DX009 (ip), vehicle: Klucel (hydroxypropylcellulose) (HPC)
[4] = dose: 400.0 mg/kg/injection, schedule: Q01DX009 (ip), vehicle: Klucel (hydroxypropylcellulose) (HPC)

Measured: T/C

CCN1C(=O)CC2(CCN(C)CC2)C1=O
inactive: dose: 0.78 mg/kg/injection, schedule: Q01DX009 (ip), vehicle: saline 122 % of control | dose: 1.56 mg/kg/injection, schedule: Q01DX009 (ip), vehicle: saline 117 % of control | dose: 3.12 mg/kg/injection, schedule: Q01DX009 (ip), vehicle: saline 103 % of control | dose: 6.25 mg/kg/injection, schedule: Q01DX009 (ip), vehicle: saline 108 % of control | dose: 12.5 mg/kg/injection, schedule: Q01DX009 (ip), vehicle: saline 108 % of control | dose: 25.0 mg/kg/injection, schedule: Q01DX009 (ip), vehicle: saline 102 % of control | dose: 50.0 mg/kg/injection, schedule: Q01DX009 (ip), vehicle: saline 98 % of control | [1] 96 % of control

COC(C/C=C\C=C\CC/C=C/CC(C)/C=C/C(=C\C(=O)O)CC(=O)O)/C(C)=C\C=C(/C)C(=O)O (configuration not stated)
inactive: dose: 0.05 mg/kg/injection, schedule: Q01DX009 (ip), vehicle: saline 108 % of control | dose: 0.1 mg/kg/injection, schedule: Q01DX009 (ip), vehicle: saline 107 % of control | dose: 0.2 mg/kg/injection, schedule: Q01DX009 (ip), vehicle: saline 107 % of control | dose: 0.4 mg/kg/injection, schedule: Q01DX009 (ip), vehicle: saline 94 % of control

O=C1CSC2=NCCN12
inactive: dose: 50.0 mg/kg/injection, schedule: Q01DX009 (ip), vehicle: suspension in saline 99 % of control | dose: 100.0 mg/kg/injection, schedule: Q01DX009 (ip), vehicle: suspension in saline 113 % of control | dose: 200.0 mg/kg/injection, schedule: Q01DX009 (ip), vehicle: suspension in saline 111 % of control

CCCCC(NC(=O)C(Cc1ccccc1)NC(=O)OCc1ccccc1)C(=O)O (stereo not drawn) (Cbz-Phe-[Nle]-OH; configuration not given here)
inactive: dose: 50.0 mg/kg/injection, schedule: Q01DX009 (ip), vehicle: saline with Tween-80 92 % of control | dose: 100.0 mg/kg/injection, schedule: Q01DX009 (ip), vehicle: saline with Tween-80 100 % of control

Cc1[nH]c(=O)[nH]c(=O)c1[N+](=O)[O-]
inactive: [2] 100 % of control | [3] 95 % of control | [4] 100 % of control

COC(=O)CCNCc1ccccc1
inactive: [2] 100 % of control | [3] 96 % of control | [4] 93 % of control

COc1cc(C=O)cc(O)c1O
inactive: [1] 95 % of control | dose: 200.0 mg/kg/injection, schedule: Q01DX009 (ip), vehicle: saline 111 % of control

N=C(N)c1ccc(/C=C/c2ccc(C(=N)N)cc2)cc1
inactive: dose: 16.0 mg/kg/injection, schedule: Q01DX009 (ip), vehicle: saline with Tween-80 98 % of control | dose: 32.0 mg/kg/injection, schedule: Q01DX009 (ip), vehicle: saline with Tween-80 93 % of control

CCCCCCC1CCC(N)CC1 (configuration not stated)
inactive: dose: 12.5 mg/kg/injection, schedule: Q01DX009 (ip), vehicle: Klucel (hydroxypropylcellulose) (HPC) 86 % of control

O=CNC(CSC(=O)c1ccccc1)C(=O)O (configuration not stated)
inactive: dose: 50.0 mg/kg/injection, schedule: Q01DX009 (ip), vehicle: Klucel (hydroxypropylcellulose) (HPC) 100 % of control | [2] 100 % of control | [3] 94 % of control

CN(C)N=Nc1cccc(C(N)=O)c1
inactive: dose: 5.0 mg/kg/injection, schedule: Q01DX009 (ip), vehicle: Klucel (hydroxypropylcellulose) (HPC) 103 % of control and 121 % of control | dose: 10.0 mg/kg/injection, schedule: Q01DX009 (ip), vehicle: Klucel (hydroxypropylcellulose) (HPC) 106 % of control and 113 % of control | dose: 20.0 mg/kg/injection, schedule: Q01DX009 (ip), vehicle: Klucel (hydroxypropylcellulose) (HPC) 111 % of control and 123 % of control | dose: 80.0 mg/kg/injection, schedule: Q01DX009 (ip), vehicle: Klucel (hydroxypropylcellulose) (HPC) 101 % of control and 118 % of control | [1] 46 % of control | dose: 160.0 mg/kg/injection, schedule: Q01DX009 (ip), vehicle: Klucel (hydroxypropylcellulose) (HPC) 113 % of control

CCCCN(CCCC)/N=C\C1=C2NC(=O)/C(C)=C\C=C/C(OC)C(OC(N)=O)/C(C)=C/C(C)C(O)C(OC)CC(C)CC(=C(OC)C1=O)C2=O (configuration not stated)
inactive: dose: 12.5 mg/kg/injection, schedule: Q01DX005 (ip), vehicle: other 103 % of control | dose: 25.0 mg/kg/injection, schedule: Q01DX005 (ip), vehicle: other 94 % of control | dose: 50.0 mg/kg/injection, schedule: Q01DX005 (ip), vehicle: other 90 % of control | dose: 100.0 mg/kg/injection, schedule: Q01DX005 (ip), vehicle: other 95 % of control | dose: 200.0 mg/kg/injection, schedule: Q01DX005 (ip), vehicle: other 93 % of control

— PubChem BioAssay AID192 (DTP/NCI, 2004)
